“And” between values parts separate entries of the source, which are not always exact repeats. Equal values may be shown once.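 Step 1: Grow cells in 96-well plates. Step 2: Expose to compound for 48 hours at 5 concentrations. Step 3: Interpolate endpoints linearly; if unreached, use highest concentration. Here, GI50 denotes the concentration required for 50% inhibition of growth. The concentration for full growth arrest is given as TGI.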
Tests used:
Experiment in all cases: NCI tumour cell line growth inhibition, 48 h
HOP-92 NSCLC = system: HOP-92 NSCLC
SF-295 CNS = system: SF-295 CNS
SK-MEL-5 melanoma = system: SK-MEL-5 melanoma
OVCAR-3 ovarian = system: OVCAR-3 ovarian
HS 578T breast = system: HS 578T breast
UO-31 renal = system: UO-31 renal
UACC-62 melanoma = system: UACC-62 melanoma
NCI-H522 lung = system: NCI-H522 lung
NCI-H23 lung = system: NCI-H23 lung
T-47D breast = system: T-47D breast

Compound | GI50 (HOP-92 NSCLC) | TGI (HOP-92 NSCLC) | GI50 (SF-295 CNS) | TGI (SF-295 CNS) | GI50 (SK-MEL-5 melanoma) | TGI (SK-MEL-5 melanoma) | GI50 (OVCAR-3 ovarian) | TGI (OVCAR-3 ovarian) | GI50 (HS 578T breast) | TGI (HS 578T breast) | GI50 (UO-31 renal) | TGI (UO-31 renal) | GI50 (UACC-62 melanoma) | TGI (UACC-62 melanoma) | GI50 (NCI-H522 lung) [µM] | TGI (NCI-H522 lung) | GI50 (NCI-H23 lung) | TGI (NCI-H23 lung) | GI50 (T-47D breast) | TGI (T-47D breast)
CC(C)n1nc(C#Cc2cccc(O)c2)c2c(N)ncnc21 | 0.489 µM and 0.187 µM | 2.35 µM and 0.774 µM | 3.16 µM and 1.17 µM | 12.2 µM and 3.58 µM | 1.72 µM and 0.887 µM | 6.39 µM and 2.67 µM | 1.32 µM and 1.7 µM | 5.62 µM and 7.63 µM | 0.583 µM and 0.17 µM | 1.88 µM and 0.632 µM | 0.391 µM and 0.416 µM | 1.92 µM and 2.83 µM | 0.82 µM and 0.346 µM | 2.59 µM and 1.58 µM | 0.627 | 5.33 µM and 4.55 µM | 1.23 µM and 0.992 µM | 6.75 µM and 5.4 µM | 1.01 µM and 0.864 µM | 3.38 µM and 4.09 µM
COc1ccc(/C(=C/c2ccc3ccccc3c2)c2nn[nH]n2)cc1OC | 4.59 µM | 79.8 µM | 1.51 µM | 51.1 µM | 4.68 µM | 23.8 µM | 1.69 µM | 7.87 µM | 2.23 µM | 53.6 µM | 5.59 µM | > 100 µM | 0.867 µM | > 100 µM | 1.14 | 35.8 µM | 5.29 µM | > 100 µM | 28.2 µM | > 100 µM
NC(=O)c1cc(I)ccc1NC(=O)/C=C/c1ccccc1Cl | 7.22 µM | 36.4 µM | 0.592 µM | 19 µM | 0.366 µM | 13 µM | 0.271 µM | 0.638 µM | 0.34 µM | 2.19 µM | 1.79 µM | 31.8 µM | 0.312 µM | 48.7 µM | 0.334 | 1.64 µM | 1.07 µM | 19.6 µM | 3.13 µM | > 90.8 µM
Clc1ccc(-c2nc3c(-c4ccccc4)nc(-c4ccccc4)cn3c2-c2ccc(Cl)cc2)cc1 | > 100 µM | > 100 µM | > 100 µM | > 100 µM | > 100 µM | > 100 µM | > 100 µM | > 100 µM | > 100 µM | > 100 µM | > 100 µM | > 100 µM | > 100 µM | > 100 µM | > 100 | > 100 µM | > 100 µM | > 100 µM | > 100 µM | > 100 µM
CCOC(=O)C1=C(C)NC(C)=C(C(=O)OCCNC(=O)c2ccc(N=[N+]=[N-])cc2)C1c1ccccc1C(F)(F)F (stereo not given) | – | 18.9 µM | – | 21.5 µM | – | 12.7 µM | – | 21.5 µM | – | 21.5 µM | – | 21.5 µM | – | 21.5 µM | – | 19.3 µM | – | 21.5 µM | – | 21.5 µM
CS(=O)(=O)c1ccc2c(c1)C(=O)c1c-2n(CCCBr)c(=O)c2cc([N+](=O)[O-])ccc12 | 10.9 µM | 40 µM | 2.07 µM | 33.5 µM | 1.91 µM | 15.8 µM | 28.8 µM | > 100 µM | 4.98 µM | 44.1 µM | 3.12 µM | > 100 µM | 4.26 µM | > 100 µM | 4.87 | > 100 µM | 7.87 µM | > 100 µM | 4.88 µM | > 100 µM
Cc1cncc(-c2nc(NCCc3c[nH]c4ccccc34)c3ncn(C(C)C)c3n2)c1 | 3.63 µM | 15.5 µM | 2.74 µM | 10.8 µM | 4.23 µM | 15.5 µM | 5.67 µM | 40.9 µM | 2.64 µM | 9.96 µM | 3.06 µM | 12.9 µM | 3.3 µM | 12.1 µM | 5.66 | 23.2 µM | 5.34 µM | 19.4 µM | 4.98 µM | 19.6 µM
O=C(CN1CCN(CCN2C(=O)c3cccc4cccc(c34)C2=O)CC1)Nc1ccc2ncsc2c1 | 5.24 µM | > 100 µM | 4.9 µM | 20.7 µM | 3.7 µM | 16 µM | 7.34 µM | 21.5 µM | 43.3 µM | > 100 µM | 6.21 µM | 30.8 µM | 6.61 µM | 22.4 µM | 3.96 | 18 µM | 7.08 µM | 27 µM | 5.12 µM | 30.5 µM
Cc1ccc(S(=O)(=O)OCC(=O)Nc2ccc(C(=O)O)c(O)c2)cc1 | 20 µM | 56.7 µM | 167 µM | 322 µM | 27 µM | 82.6 µM | 19.3 µM | 44.5 µM | 20.3 µM | 61.8 µM | 45.1 µM | 173 µM | 20.9 µM | 61.4 µM | 11.9 | 34.6 µM | 29.4 µM | 105 µM | 43.2 µM | 133 µM
O=C(NCCCl)NCCN1c2nc3ccccc3cc2Sc2cc3ccccc3nc21 | 0.722 µM | 7.47 µM | 0.569 µM | 3.75 µM | 0.168 µM | 1.25 µM | 1.45 µM | 16.1 µM | 0.962 µM | 9.57 µM | 2.64 µM | > 52.1 µM | 1.62 µM | 18.2 µM | 4.23 | > 53.3 µM | 1.43 µM | > 45.6 µM | 2.04 µM | 12 µM

Reference: PubChem BioAssay (NCI)
